Entries after “also recorded” stand apart in the source; their conditions may differ. Counter-ions that a name gives are not always drawn. Like-named read-outs stand apart in the source and are kept apart here.
How the values were obtained:
[1] = test system: Nrf2 target genes; test: qRT-PCR of Nrf2 target genes, statements over all tested genes; format: in vivo, C57BL/6 mice
Description: For RNA preparation, frozen tissues were placed in 2 mL RNAse-free 96-well blocks with 1.5 mL QIAzol Lysis Reagent (QIAgen) and a 3.2 mm stainless steel bead (BioSpec Products, Bartlesville, Okla.). Tissues were disrupted for four cycles of 45 seconds in a Mini-Beadbeater (Biospec Products). RNA was extracted with chloroform and the aqueous phase was mixed with an equal volume of 70% ethanol. Extracted RNA was applied to RNeasy 96 plates and purified by the spin method according to the manufacturer's protocol (RNeasy 96 Universal Tissue Protocol, QIAgen, Hilden Germany).
Samples were reverse-transcribed into cDNA according to the manufacturer protocols using the High Capacity cDNA Reverse Transcription Kit (Life Technologies, Carlsbad, Calif.) and analyzed by qRT-PCR. Mouse target gene primers and 6-FAM™ dye-labeled TaqMan® MGB™ probes (Life Technologies) were used. Reactions containing 100 ng of cDNA, 900 nM of each primer, and 250 nM TaqMan probes were cycled on a QuantStudio 12 k-flex system (Life Technologies) once for 10 minutes at 95° C., followed by 40 cycles of 95° C. for 10 seconds and 60° C. for 1 minute. All samples were measured in triplicate with Gapdh as a normalizing gene. Taqman primer/probe sets from Life Technologies included: Akr1b8 (Mm00484314_m1); Gapdh (Mm03302249_g1); Gclc (Mm00802655_m1); Hmox1 (Mm00516005_m1); Nqo1 (Mm01253561_m1); and Osgin1 (Mm00660947_m1). Comparative CT method was used to calculate fold changes and samples were normalized relative to time-matched vehicle control.
At the 10-minute time point, 4 animals from each group were sacrificed, with plasma and tissues (brain, jejunum and kidney) collected to determine MMF exposure. Two hours after dosing, the remaining 4 animals were sacrificed, and plasma and tissues were collected. Tissue samples from the 2-hour time point were divided, with half of each sample used for MMF exposure analysis, and half for RNA extraction and qRT-PCR to evaluate the expression of Nrf2 target genes.
Ten minutes after dosing, 4 animals from each group were sacrificed, and plasma and tissues (brain, kidney, jejunum and spleen) were collected to quantify MMF exposure levels, as well as whole blood to perform CBC. Two hours post-dose, another 4 animals from each group were sacrificed, and plasma, whole blood, and tissues were collected. Tissue samples from the 2-hour time point were split, with half of each sample used for MMF exposure analysis, and half for RNA extraction/qRT-PCR to evaluate the expression of Nrf2 target genes. Six hours after dosing, the last 4 animals from each group were sacrificed, and whole blood and tissues were collected.
(§1) A CBC with differential panel was performed at 10 minutes post-last dose via facial vein bleeding, and at 2 hours after the last dose, pharmacodynamic Nrf2 transcriptional responses were analyzed in tissues from the same animals. Histopathology was also performed on regions of the tail in a pilot toxicology study.

[2] = test system: blood cell populations; test: Complete blood count (CBC) with differential after IV dosing; format: in vivo, C57BL/6 mice
Description: Whole blood samples (250 μL) were collected in EDTA tubes at indicated time points after dosing, and were maintained at 4° C. until analysis for CBC with differential at Charles River Laboratories (analyzed within 24-36 hours from time of collection).
Statistical analyses on blood cell fractions were not completed due to the overall variability and low number of replicates for the samples in this pilot study.
as §1

[3] = Solubility of DMF in aqueous media at 37° C.; format: physicochemical; settings: thermodynamic from solid
[4] = DMF IV formulation development: solubility in solvents and excipient vehicles; format: physicochemical
Description: 2. […] For example, 2% DMSO (0.1 ml/kg/5 ml/kg*100%=2.0%), 10% PEG400 (1 ml/kg/5 ml/kg*50%=10%) and 20% Captisol (sulfobutyl ether cyclodextrin) (5 ml/kg/5 ml/kg*20%=20%) could be used for rodent IV formulation assumed the dosage of 5 ml/kg. 3. […] The studies were performed by making the PEG400 stock solution and diluting the solution with different vehicles (Table 16). […] 4.

[5] = Solubility of DMF in 20% Captisol; format: physicochemical; settings: aqueous with cosolvent or surfactant or cyclodextrin, thermodynamic from solid, room temperature (heated at 50° C., cooled, filtered)
Description: The preparations were heated at 50° C. for 5-10 min, followed by cooled to room temperature.

[6] = Stability of DMF 20% Captisol solutions at ambient temperature (HPLC); format: physicochemical; settings: for DMF area %: 20% Captisol
Text: Samples stored at ambient temperature were pulled at predetermined time points (0, 2 and 7 days), and analyzed by HPLC. [table]

[7] = Study 3, DMF IV 30 mg/kg once daily x5, 2 hours after dosing
[8] = Study 3, DMF IV 30 mg/kg once daily x5
[9] = Study 3, DMF IV 30 mg/kg once daily x5, vs vehicle

COC(=O)/C=C/C(=O)OC [DMF, dimethyl fumarate]
Changes in gene expression, jejunum ([1]; Study 1, DMF IV 17.5 mg/kg, 2 hours): No significant changes in gene expression | Changes in transcript levels, kidney ([1]; Study 2, DMF IV 30 mg/kg, 2 hours): No significant changes | Genes significantly increased, brain [1, 7]: significant increase was observed in brain Hmox1, Osgin1, and Gclc levels | Genes significantly increased, kidney and jejunum [1, 7]: Significant increases were also observed in Akr1b8, Nqo1, and Osgin1 levels | Other transcripts in tissues analyzed ([1]; Study 3, DMF IV 30 mg/kg once daily x5, 2 hours post-last dose): generally unaffected | Reduction in white blood cell counts (neutrophils, lymphocytes, monocytes, eosinophils, basophils) ([2]; Study 2, single IV dose DMF 30 mg/kg or MMF 27.08 mg/kg, 2-hour time point): did not specifically coincide with DMF or MMF treatment | Effect on red blood cells, hemoglobin, hematocrit, mean corpuscular volume, platelets ([2]; Study 2, single IV dose DMF 30 mg/kg or MMF 27.08 mg/kg, 10 minutes, 2 and 6 hours): no effect on red blood cells, hemoglobin, hematocrit, mean corpuscular volume, or platelets | Effect on red blood cells, hemoglobin, hematocrit, mean corpuscular volume, platelets [2, 8]: no effects on red blood cells, hemoglobin, hematocrit, mean corpuscular volume, or platelets | White blood cells [2, 8]: general reduction in white blood cells | Decrease in lymphocytes [2, 9]: 38% | Decrease in monocytes [2, 9]: 60% | solubility at 24 h ([3]; pH 2 citrate buffer, pH 2, aqueous buffer, pH 2 Citrate Buffer, pH 1.93, read-out: Solubility): 3770 µg/mL | solubility at 24 h ([3]; pH 2 citrate buffer, pH 2, aqueous buffer, pH 2 Citrate Buffer, read-out: Solubility Description): 1000 to 10000 µg/mL | solubility at 24 h ([3]; pH 4 citrate buffer, pH 4, aqueous buffer, pH 4 Citrate Buffer, pH 3.89, read-out: Solubility): 3320 µg/mL | solubility at 24 h ([3]; pH 4 citrate buffer, pH 4, aqueous buffer, pH 4 Citrate Buffer, read-out: Solubility Description): 1000 to 10000 µg/mL | solubility at 24 h ([3]; pH 6 citrate buffer, pH 6, aqueous buffer, pH 6 Citrate Buffer, pH 6.01, read-out: Solubility): 3470 µg/mL | solubility at 24 h ([3]; pH 6 citrate buffer, pH 6, aqueous buffer, pH 6 Citrate Buffer, read-out: Solubility Description): 1000 to 10000 µg/mL | solubility at 24 h ([3]; pH 8 borate buffer, pH 8, aqueous buffer, pH 8 Borate Buffer, pH 5.44, read-out: Solubility): 4020 µg/mL | solubility at 24 h ([3]; pH 8 borate buffer, pH 8, aqueous buffer, pH 8 Borate Buffer, read-out: Solubility Description): 1000 to 10000 µg/mL | solubility at 24 h ([3]; pH 10 borate buffer, pH 10, aqueous buffer, pH 10 Borate Buffer, pH 5.49, read-out: Solubility): 3570 µg/mL | solubility at 24 h ([3]; pH 10 borate buffer, pH 10, aqueous buffer, pH 10 Borate Buffer, read-out: Solubility Description): 1000 to 10000 µg/mL | solubility at 24 h ([3]; simulated gastric fluid (SGF, without pepsin), pH 6.9, simulated gastric fluid, SGF (without pepsin), pH 6.90, read-out: Solubility): 2950 µg/mL | solubility at 24 h ([3]; simulated gastric fluid without pepsin, pH 1.2, simulated gastric fluid, SGF (without pepsin), read-out: Solubility Description): 1000 to 10000 µg/mL | solubility at 24 h ([3]; simulated intestinal fluid (SIF, without pancreatin), pH 1.2, fassgf or other biorelevant, SIF (without pancreatin), pH 1.20, read-out: Solubility): 3110 µg/mL | solubility at 24 h ([3]; simulated intestinal fluid without pancreatin, pH 6.9, fassgf or other biorelevant, SIF (without pancreatin), read-out: Solubility Description): 1000 to 10000 µg/mL | solubility at 24 h ([3]; water, pH 5.2, water, Water, pH 5.20, read-out: Solubility): 2840 µg/mL | solubility at 24 h ([3]; water, pH 5.2, water, Water, read-out: Solubility Description): 1000 to 10000 µg/mL | Solution or precipitated ([4]; 5 mg/ml DMF in 15% HPbCD, heating then cooling to room temperature, final pH 3.51): solution | Solution or precipitated ([4]; 5 mg/ml DMF in 20% Captisol, heating then cooling to room temperature, final pH 4.71): clear solution could be achieved | Suitable for 5 mg/ml dosage? ([4]; 10% PEG400 + 0.5% HPMC): No | Suitable for 5 mg/ml dosage? ([4]; 10% PEG400 + 0.5% HPMC + 0.2% SDS): No | Solution or precipitated ([4]; 10% PEG400 + 0.5% HPMC + 0.2% SDS, final concentration 2.8 mg/ml): precipitated | Solution or precipitated ([4]; 10% PEG400 + 0.5% HPMC, final concentration 2.8 mg/ml): precipitated | Suitable for 5 mg/ml dosage? ([4]; 10% PEG400 + 1.5% Poloxamer 188): No | Solution or precipitated ([4]; 10% PEG400 + 1.5% Poloxamer 188, final concentration 2.8 mg/ml): precipitated | Suitable for 5 mg/ml dosage? ([4]; 10% PEG400 + 1.5% Poloxamer 237): No | Solution or precipitated ([4]; 10% PEG400 + 1.5% Poloxamer 237, final concentration 2.8 mg/ml): precipitated | Suitable for 5 mg/ml dosage? ([4]; 10% PEG400 + 2.0% Tween 80): No | Solution or precipitated ([4]; 10% PEG400 + 2.0% Tween 80, final concentration 2.8 mg/ml): precipitated | Suitable for 5 mg/ml dosage? ([4]; 10% PEG400 + 15% HPbCD): Might be | Solution or precipitated ([4]; 10% PEG400 + 15% HPbCD, final concentration 2.8 mg/ml): generated clear solutions at 2.8 mg/ml; also recorded: Clear solution | Suitable for 5 mg/ml dosage? ([4]; 10% PEG400 + 20% Captisol): Might be | Solution or precipitated ([4]; 10% PEG400 + 20% Captisol, final concentration 2.8 mg/ml): generated clear solutions at 2.8 mg/ml; also recorded: Clear solution | Suitable for 5 mg/ml dosage? ([4]; 10% PEG400 + D5W): No | Suitable for 5 mg/ml dosage? ([4]; 10% PEG400 + D5W phosphate buffer (pH 6.0)): No | Solution or precipitated ([4]; 10% PEG400 + D5W phosphate buffer (pH 6.0), final concentration 2.8 mg/ml): precipitated | Solution or precipitated ([4]; 10% PEG400 + D5W, final concentration 2.8 mg/ml): precipitated | Suitable for 5 mg/ml dosage? ([4]; 10% PEG400 + H2O): No | Solution or precipitated ([4]; 10% PEG400 + H2O, final concentration 2.8 mg/ml): precipitated | Suitable for 5 mg/ml dosage? ([4]; 10% PEG400 + Saline (pH 7)): No | Solution or precipitated ([4]; 10% PEG400 + Saline (pH 7), final concentration 2.8 mg/ml): precipitated | Suitable for 5 mg/ml dosage? ([4]; 20% Captisol, final pH 4.71): Might be, 5 mg/ml solution could be | solubility ([4]; DMSO (pure solvent), organic solvent or mixture): 23000 to 29000 µg/mL | solubility ([4]; PEG400, organic solvent or mixture): 38000 to 46000 µg/mL | solubility ([4]; ethanol, organic solvent or mixture): < 20000 µg/mL | solubility ([4]; organic solvent or mixture, propylene Glycol (PG)): < 20000 µg/mL | solubility [5]: 4110 µg/mL | Stability of DMF in 20% Captisol solution ([6]; 0.2 mg/ml): stable up to 2 days; also recorded: stable up to 2 d; also recorded: chemically and physically stable for 2 days | DMF area % ([6]; 0.2 mg/ml, 2 d): 99.5 area % | DMF area % ([6]; 0.2 mg/ml, 7 d): 97.2 area % | DMF area % ([6]; 0.2 mg/ml, initial): 99.7 area % | DMF area % ([6]; 4 mg/ml, 7 d): 99.4 area % | DMF area % ([6]; 4 mg/ml, initial): 99.7 area %

Reference: patent US20180289655A1, “Methods and Compositions for the Intravenous Administration of Fumarates for the Treatment of Neurological Diseases” (Biogen MA Inc., priority 2015, published 2018)
